One series has as its system AGS gastric cancer cell. In words: MTT cell growth inhibition assay, AGS gastric cancer cells. It counts as cell-based. The note with it: Homo sapiens, mean ± SD of three experiments. An excerpt: (§1) Initially, we designed and synthesised seven compounds—9a and 12a1–12a6—and evaluated the anticancer activity and aqueous solubility. We evaluated the cytotoxic effects of these stilbene nitrile analogues against a panel of four human cancer cell lines (HCT-116, BEL-7402, MCF-7 and AGS) and two human non-cancerous normal cell lines (L-02 and MCF-10A), using CA-4 as a control. The compounds were screened for aqueous solubility in 0.01 M PBS using a high throughput UV method. […] It is possible that the size of the nitrogen heterocycle had little effect on the activity of these compounds. […] The aqueous solubility of all the compounds 12a1–12a6 was higher than that of 9a, particularly that of 12a1 and 12a2 containing piperazine rings. […] Of the six compounds with improved aqueous solubility, 12a1 had the best activity.
(§2) All human cell lines were used in this study. AGS gastric cancer cell, BEL-7402 liver cancer cell, HCT-116 colorectal cancer cell, L-02 normal liver cell, MCF-7 breast cancer cell, and MCF-10A normal breast cell were initially purchased from American Type Culture Collection (ATCC, Manassas, VA, USA). RPMI-1640 media, DMEM and FBS, were provided by Gibco Company. The cells were maintained in DMEM or RPMI-1640, supplemented with 10% FBS, 100 IU/mL penicillin and […] streptomycin, and at 37 °C in a humidified atmosphere containing 5% CO2.
(§3) The experiment was carried out according to the method of reference.

The test system of the next series is MCF-7 breast cancer cell. In words: MTT cell growth inhibition assay, MCF-7 breast cancer cells. Conditions: Homo sapiens, MCF7, mean ± SD of three experiments. It counts as cell-based.
Description: as §1, §2, §3

In series [1] the test system is HCT-116 colorectal cancer cell. Kind of series: MTT cell growth inhibition assay, HCT-116 colorectal cancer cells. Conditions: Homo sapiens, HCT-116; MTT; mean ± SD of three experiments. It counts as cell-based, human.
Description: as §1, §2, §3

The subject of series [2] is MCF-10A normal breast cell. In words: MTT cell growth inhibition assay, MCF-10A normal breast cells. It counts as cell-based. Conditions: Homo sapiens, mean ± SD of three experiments, read-out: IC50 MCF-10A Normal Breast Epithelial Cells.
Description: as §1, §2, §3

Another series has as its system L-02 normal liver cell. In words: MTT cell growth inhibition assay, L-02 normal liver cells. It counts as cell-based. The note with it: Homo sapiens, mean ± SD of three experiments.
Description: as §1, §2, §3

The nature of series [3]: Drug-plasma protein binding rate, equilibrium dialysis. It counts as in vitro ADME. Conditions: rat, equilibrium dialysis vs phosphate buffer pH 7.4, 4 °C. Here is the method:
Compounds at 90 μM concentration were mixed with rat plasma, and the mixtures were subjected to equilibrium dialysis versus phosphate buffer (pH 7.4) at 4 °C for 48 h. The dialysis membrane of molecular weight cut off 1 kDa was used. Dialysis experiments were done in triplicate. On completion of the dialysis period, absorb a certain amount of buffer and plasma, respectively, and add methanol to treat the sample. Dialysis samples were analysed by HPLC. The plasma protein binding rate of the compound was calculated as follows: protein binding rate/% = (plasma drug concentration inside dialysis bag—dialysate drug concentration outside dialysis bag)/plasma drug concentration inside dialysis bag × 100%. […]
injection volume was 3 μL. The column temperature was set at 40℃.
1.7. The drug-plasma protein binding rate assessment
Compound 12a1 at 90 μM concentration were mixed with rats plasma. The mixtures were subjected to equilibrium dialysis versus phosphate buffer pH 7.4 buffer at 4℃ for 48 hour using equilibrium dialysis. The dialysis membrane of molecular weight cutoff 1 kDa was used. […] Dialysis samples were analyzed by HPLC, The plasma protein binding rate of the compound was calculated as follows: protein binding rate ∕ % = (plasma drug concentration inside dialysis bag − dialysate drug concentration outside dialysis bag) ∕ plasma drug concentration inside dialysis bag × […]
In general terms: In equilibrium dialysis free small molecules cross a membrane that holds back macromolecules.

Series [4] is described as follows: Compound stability in rat plasma, HPLC. Conditions: 37 °C. It counts as in vitro ADME. Here is the method:
Blood was collected from SD rats (200–250 g, male and female, Animal Experimental Center of Yanbian University) into heparin tubes, and supernatant plasma was collected after centrifugation.
A certain amount of 9a and 12a1 were accurately weighed and mixed with rat plasma. After incubation at 37 ℃ for 0, 6, 12, 24 and 36 h, the plasma samples were treated with methanol and analyzed by HPLC to determine their stability in plasma.
A HITACHI Primaide HPLC liquid chromatography system was equipped and used for all analyses. Chromatographic separation was performed on a Welch Ultimate XB-C18 column (3.9 mm × 150 mm, 5 μm; Welch, China). The analytes were eluted using a gradient method with a flow rate of 1 mL/min. Mobile phase A was Ultra pure water, and mobile phase B was methanol according to the following gradient: (1) The gradient elution conditions of 9a: 0 to 8 min, 55% to 67% B; 8.1 to 15 min, 67% to 90% B; 15.1 to 25 min, 55% B. (2) The gradient elution conditions of 12a1: 0 to 9 min, 55% to 65% B; 9.1 to 12 min, 65% to 75% B; 12.1 to 15 min, 75% to 85% B; 15.1 to 20 min, 90% B; 20.1 to 30 min, 55% B. The injection volume was 3 μL. The column temperature was set at 40 °C. […]
1.6. Plasma stability assessment
Prepare plasma:blood was collected from SD rats (200-250g, male and female, Animal Experimental Center of Yanbian University) into heparin tubes, and supernatant plasma was collected after centrifugation.
A certain amount of 9a and 12a1 were accurately weighed and mixed with rat plasma.
After incubation at 37℃ for 0 h, 6 h, 12 h, 24 h and 36 h, the plasma samples were treated with methanol and analyzed by HPLC to determine their stability in plasma.
Analytical instrument and conditions:
A HITACHI Primaide HPLC liquid chromatography system equipped was used for all analyses. Chromatographic separation was performed on a Welch Ultimate XB-C18 column (3.9 mm × 150 mm, 5 μm; Welch, China). The analytes were eluted using a gradient method with a flow rate of 1 mL/min. Mobile phase A was Ultra pure water, and mobile phase B was methanol according to the following gradient: (1). The gradient elution conditions of 9a: 0 to 8 minutes, 55% to 67% B; 8.1 to 15 minutes, 67% to 90% B; 15.1 to 25 minutes, 55% B. (2). The gradient elution conditions of […]

The values below come from paper PMC9963121, “Development of Combretastatin A-4 Analogues as Potential Anticancer Agents with Improved Aqueous Solubility” (Molecules, 2023).

As for `COc1cc(/C(C#N)=C/c2ccc(NC(=O)CN3CCN(C)CC3)cc2)cc(OC)c1OC` [12a1], the IC50 in the series on AGS gastric cancer cell turned out to be 10.7 ± 0.52 µM; in the series on MCF-7 breast cancer cell, 16.1 ± 2.7 µM; in series [1] it was 2.44 ± 0.29 µM; in series [2] it was 20.9 ± 0.78 µM; with L-02 normal liver cell, 32.7 ± 1.44 µM. In series [3], this compound had a fraction unbound at 48 h, 90 μM of 0.393. Besides, in series [4] (within 36 h, UV 294 nm), the “Decrease of HPLC peak area in rat plasma” value is around 22%. Moreover, the “Plasma stability (in words)” value in series [4] (rat plasma, 24 h) is given as “retained plasma stability over 24 h”.

A word on the IC50: it is the point on the concentration scale where inhibition reaches its midpoint. As a reminder, the fraction unbound is free concentration divided by total concentration. A lower fraction unbound goes with extensive binding.
